Assay results reported in PubChem BioAssay (NCI).
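GI50: concentration for 50% inhibition of growth. Definition used: TGI = concentration required for complete inhibition of growth.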

What was measured:
Assay in all cases: growth of human tumour cells (NCI), 384-well format
COLO 205 colon = system: COLO 205 colon
SN12C renal = system: SN12C renal
UACC-257 melanoma = system: UACC-257 melanoma
NCI/ADR-RES ovarian = system: NCI/ADR-RES ovarian
RXF 393 renal = system: RXF 393 renal
A549 NSCLC = system: A549 NSCLC
CAKI-1 renal = system: CAKI-1 renal
MALME-3M melanoma = system: MALME-3M melanoma
HS 578T breast = system: HS 578T breast
MCF7 breast = system: MCF7 breast
ACHN renal = system: ACHN renal
HCC-2998 colon = system: HCC-2998 colon
MOLT-4 leukemia = system: MOLT-4 leukemia
T-47D breast = system: T-47D breast
SNB-75 CNS = system: SNB-75 CNS
OVCAR-4 ovarian = system: OVCAR-4 ovarian
KM12 colon = system: KM12 colon
SK-MEL-5 melanoma = system: SK-MEL-5 melanoma
MDA-MB-468 breast = system: MDA-MB-468 breast
UACC-62 melanoma = system: UACC-62 melanoma
SF-295 CNS = system: SF-295 CNS
SW-620 colon = system: SW-620 colon
M14 melanoma = system: M14 melanoma
SNB-19 CNS = system: SNB-19 CNS
EKVX NSCLC = system: EKVX NSCLC
IGROV1 ovarian = system: IGROV1 ovarian
NCI-H460 NSCLC = system: NCI-H460 NSCLC
SK-OV-3 ovarian = system: SK-OV-3 ovarian
SR leukemia = system: SR leukemia
OVCAR-8 ovarian = system: OVCAR-8 ovarian
NCI-H226 lung = system: NCI-H226 lung
LOX IMVI melanoma = system: LOX IMVI melanoma
UO-31 renal = system: UO-31 renal
SF-268 CNS = system: SF-268 CNS
HOP-62 NSCLC = system: HOP-62 NSCLC
DU-145 prostate = system: DU-145 prostate
HL-60(TB) leukemia = system: HL-60(TB) leukemia
BT-549 breast = system: BT-549 breast
MDA-MB-231 breast = system: MDA-MB-231 breast
MDA-MB-435 melanoma = system: MDA-MB-435 melanoma
HCT-15 colon = system: HCT-15 colon
RPMI-8226 leukemia = system: RPMI-8226 leukemia
786-0 renal = system: 786-0 renal
A498 renal = system: A498 renal
PC-3 prostate = system: PC-3 prostate
OVCAR-3 ovarian = system: OVCAR-3 ovarian
NCI-H522 lung = system: NCI-H522 lung
SK-MEL-28 melanoma = system: SK-MEL-28 melanoma
NCI-H322M lung = system: NCI-H322M lung
U251 glioblastoma = system: U251 glioblastoma
TK-10 renal = system: TK-10 renal
NCI-H23 lung = system: NCI-H23 lung
HCT-116 colon = system: HCT-116 colon

## Cc1ccc(Nc2nccc(N(C)c3ccc4c(C)n(C)nc4c3)n2)cc1S(N)(=O)=O
COLO 205 colon
  GI50: 14 µM
  TGI: > 100 µM
SN12C renal
  GI50: 7.86 µM
  TGI: > 100 µM
UACC-257 melanoma
  GI50: 12 µM
  TGI: 62.2 µM
NCI/ADR-RES ovarian
  GI50: 30.5 µM
  TGI: 93.6 µM
RXF 393 renal
  GI50: 0.485 µM
  TGI: 3.04 µM
A549 NSCLC
  GI50: 4.55 µM
  TGI: > 100 µM
CAKI-1 renal
  GI50: 3.78 µM
  TGI: > 100 µM
MALME-3M melanoma
  GI50: 2.73 µM
  TGI: > 100 µM
HS 578T breast
  GI50: 2.3 µM
  TGI: 7.68 µM
MCF7 breast
  GI50: 7.41 µM
  TGI: > 100 µM
ACHN renal
  GI50: 6.18 µM
  TGI: > 100 µM
HCC-2998 colon
  GI50: > 100 µM
  TGI: > 100 µM
MOLT-4 leukemia
  GI50: 2.36 µM
  TGI: 6.45 µM
T-47D breast
  GI50: 2.52 µM
  TGI: 11.4 µM
SNB-75 CNS
  GI50: 2.51 µM
  TGI: 29 µM
OVCAR-4 ovarian
  GI50: 9.52 µM
  TGI: 35.6 µM
KM12 colon
  GI50: 7 µM
  TGI: > 100 µM
SK-MEL-5 melanoma
  GI50: 3.03 µM
  TGI: 10.7 µM
MDA-MB-468 breast
  GI50: 2.97 µM
  TGI: 62.9 µM
UACC-62 melanoma
  GI50: 6.37 µM
  TGI: 20.8 µM
SF-295 CNS
  GI50: 8.89 µM
  TGI: > 100 µM
SW-620 colon
  GI50: > 100 µM
  TGI: > 100 µM
M14 melanoma
  GI50: 8.19 µM
  TGI: 52.9 µM
SNB-19 CNS
  GI50: > 100 µM
  TGI: > 100 µM
EKVX NSCLC
  GI50: 14.3 µM
  TGI: > 100 µM
IGROV1 ovarian
  GI50: 5.68 µM
  TGI: > 100 µM
NCI-H460 NSCLC
  GI50: 5.27 µM
  TGI: > 100 µM
SK-OV-3 ovarian
  GI50: 6.47 µM
  TGI: > 100 µM
SR leukemia
  GI50: 6.38 µM
  TGI: 12.1 µM
OVCAR-8 ovarian
  GI50: 8.01 µM
  TGI: 61.3 µM
NCI-H226 lung
  GI50: 1.99 µM
  TGI: 13.3 µM
LOX IMVI melanoma
  GI50: 3.62 µM
  TGI: 40.4 µM
UO-31 renal
  GI50: 8.29 µM
  TGI: > 100 µM
SF-268 CNS
  GI50: 12.6 µM
  TGI: > 100 µM
HOP-62 NSCLC
  GI50: 6.28 µM
  TGI: 34.5 µM
DU-145 prostate
  GI50: 9.34 µM
  TGI: > 100 µM
HL-60(TB) leukemia
  GI50: 7.4 µM
  TGI: 18.3 µM
BT-549 breast
  GI50: 1.61 µM
  TGI: 16.6 µM
MDA-MB-231 breast
  GI50: 5.54 µM
  TGI: > 100 µM
MDA-MB-435 melanoma
  GI50: 78.6 µM
  TGI: > 100 µM
HCT-15 colon
  GI50: 4.4 µM
  TGI: 37.8 µM
RPMI-8226 leukemia
  GI50: 3.57 µM
  TGI: 11.5 µM
786-0 renal
  GI50: 4.16 µM
  TGI: > 100 µM
A498 renal
  GI50: 6.05 µM
  TGI: 90.9 µM
PC-3 prostate
  GI50: 11.2 µM
  TGI: 70.9 µM
OVCAR-3 ovarian
  GI50: 22.6 µM
  TGI: > 100 µM
NCI-H522 lung
  GI50: 6.73 µM
  TGI: 99.3 µM
SK-MEL-28 melanoma
  GI50: 55.2 µM
  TGI: > 100 µM
NCI-H322M lung
  GI50: 7.64 µM
  TGI: 45.5 µM
U251 glioblastoma
  GI50: 9.87 µM
  TGI: > 100 µM
TK-10 renal
  GI50: 31.6 µM
  TGI: > 100 µM
NCI-H23 lung
  GI50: 4.79 µM
  TGI: 69.6 µM
HCT-116 colon
  GI50: 5.38 µM
  TGI: > 100 µM
